Measurements from US10449186B2, “Phenylethynyl-substituted benzenes and heterocycles for the treatment of cancer” (UNIVERSITY OF KENTUCKY RESEARCH FOUNDATION, priority 2017, dated 2019).
Like-named read-outs stand apart in the source and are kept apart here.

How the values were obtained:
p21^Wif1/Cip1 = assay: Western blot, p21^Wif1/Cip1 expression in LS174T cells; assay type: cell-based; conditions: 300 nM
Experimental: (§1) FIG. 2A is a western blot showing the effects of 4-((2,6-difluorophenyl)ethynyl)-N,N-dimethylaniline (2), 4-((2,6-difluorophenyl)ethynyl)-N,N-dimethylisoquinolin-1-amine (5nn), and 4-((2,6-difluorophenyl)ethynyl)-N-methylisoquinolin-1-amine (5oo) on the expression of […] and p21^Wif1/Cip1 in LS174T cells at 300 nM concentrations.
(§2) Western blotting. Western blotting was performed as described previously. The following antibodies were used: anti-c-myc (Epitomics, 1472-1), anti-p21^Wif1/Cip1 (Cell Signaling, 2947), anti-β-tubulin (DSHB, E7).

[1] = tested on: LS174T colon cancer cells; assay: LS174T cell proliferation assay; assay type: cell-based; conditions: Homo sapiens, LS174T; for IC50: read-out: IC50, LS174T cell proliferation assay; for inhibition at 0.03 µM / inhibition at 0.1 µM / inhibition at 1 µM / inhibition at 10 µM: read-out: inhibition of cell proliferation (%) of colon cancer LS174T cells
Experimental: Cell proliferation assay. LS174T cells were grown in RPMI medium (Mediatech) supplemented with 5% fetal bovine serum and 1% penicillin/streptomycin. For cell proliferation assays, 3×10^4 cells/well growing in 12-well plates were treated with DMSO or inhibitors. The cell numbers and viability were analyzed by Vi-Cell Cell Viability Analyzer after 4 days. The IC50 values were calculated with GraphPad Prim 5.

cyclin D1 = assay: Western blot, cyclin D1 expression in LS174T cells; assay type: cell-based; conditions: 300 nM
Experimental: as §1, §2

[2] = tested on: LS174T colon cancer cells; conditions: data from Sviripa et al. 2014, cited from earlier work; for inhibition of proliferation (%) of colon cancer LS174T cells: Table 1; for inhibition of cell proliferation (%) of colon cancer LS174T cells: Table 2
Water solubility = conditions: parent compound

CN(C)c1ncc(C#Cc2c(F)cccc2F)c2ccccc12 [Compound 5nn, 4-((2,6-difluorophenyl)ethynyl)-N,N-dimethylisoquinolin-1-amine]
p21^Wif1/Cip1 expression (western blot) (p21^Wif1/Cip1): induced p21^Wif1/Cip1 | melting point: 122 to 124 °C | IC50 [1]: 11.8 ± 1.5 nM | inhibition at 0.03 µM [1]: 86 ± 2% | inhibition at 0.1 µM [1]: 81.7 ± 2.1% | inhibition at 1 µM [1]: 99.5 ± 0.1% | inhibition at 10 µM [1]: 97.6 ± 1.5% | cyclin D1 expression (western blot) (cyclin D1): inhibited cyclin D1 expression

CNc1ncc(C#Cc2c(F)cccc2F)c2ccccc12 [Compound 5oo, 4-((2,6-Difluorophenyl)ethynyl)-N-methylisoquinolin-1-amine]
p21^Wif1/Cip1 expression (western blot) (p21^Wif1/Cip1): induced p21^Wif1/Cip1 | melting point: 118 to 120 °C | IC50 [1]: 4.2 ± 0.2 nM | inhibition at 0.03 µM [1]: 94.5 ± 1.5% | inhibition at 0.1 µM [1]: 99.5 ± 0.5% | inhibition at 1 µM [1]: 99.8 ± 0.2% | inhibition at 10 µM [1]: 98.9 ± 1% | cyclin D1 expression (western blot) (cyclin D1): inhibited cyclin D1 expression

CN(C)c1ccc(C#Cc2c(F)cccc2F)cc1 [Compound 2, 4-((2,6-difluorophenyl)ethynyl)-N,N-dimethylaniline]
p21^Wif1/Cip1 expression (western blot) (p21^Wif1/Cip1): induced p21^Wif1/Cip1 | inhibition of proliferation (%) of colon cancer LS174T cells ([2]; 100 nM): 85.2% | inhibition of proliferation (%) of colon cancer LS174T cells ([2]; 1 μM): 99.5% | inhibition of cell proliferation (%) of colon cancer LS174T cells ([2]; 30 nM): 57 ± 1.2% | inhibition of cell proliferation (%) of colon cancer LS174T cells ([2]; 100 nM): 85.2 ± 0.5% | inhibition of cell proliferation (%) of colon cancer LS174T cells ([2]; 1 μM): 99.5 ± 0.1% | IC50 [1]: 25.1 ± 1.3 nM | cyclin D1 expression (western blot) (cyclin D1): inhibited cyclin D1 expression | water solubility (Water solubility): sparingly water-soluble
